Measured values as given in US20250352524A1, “PREVENTION OF METASTATIC OUTGROWTH USING TEAD INHIBITORS” (Georgetown University, priority 2024, published 2025).
“Also recorded” adds a separate entry of the source.

System: DCIS:DCISA4 cells
Experiment: DCIS:DCIS-Δ4 mammary fat pad tumors in NOD/SCID mice, lung metastasis
Type: in vivo
Details: for growth rate or final volume of the primary tumors: tumors resected at 4 weeks; for outgrowth of cancer cells disseminated to the lungs: immunofluorescent staining of lungs
Procedure: Parental ductal carcinoma in situ (DCIS) was mixed with genetically-modified DCIS cells expressing AIB1-Δ4 (“DCIS-Δ4”) (see Sharif et al., 2021) at a 4:1 ratio, and the mix was injected into the mammary fat pad (MFP) of the mice. One group of mice received 30 mg/kg of the TEAD inhibitor VT107 (“iTEAD”) and the other group received vehicle treatment by daily oral gavage for 4 weeks. The primary tumors were removed by survival surgery. There was no difference observed in the growth rate or final volume of the primary tumors.
Lung tissues were subjected to RNA-Seq analysis, and Gene Set Enrichment Analysis (GSEA) was used to determine altered signaling pathways upon iTEAD treatment.
To further examine the effect of TEAD inhibition on the myeloid compartment of the lung, a human breast cancer cell line MCFDCIS (DCIS) that metastasizes to the lungs when a small population of cells (DCISA4) expresses an isoform of the transcription coactivator amplified in breast cancer 1 (Sharif et al., 2021), was used. DCIS:DCISA4 cells were injected into the mammary fat pad of NOD/SCID mice. Mice were treated daily with VT107. Tumors were surgically removed at week 4 and lungs were monitored for metastases for another 4 weeks without receiving additional treatment (FIG. 13, Panel B). Mouse body weights were measured weekly throughout the course of treatment (FIG. 13, Panel C). […] All mice in the vehicle treated group developed lung metastases as previously reported (Sharif et al., 2021). […] RNA was extracted from lung tissues to further examine the host stroma affected by VT107. RNA sequencing reads from the lungs were aligned to the mouse transcriptome to shed light on the host tissue changes in response to treatment in the presence of seeded cancer cells. […] These observations again show a shift in the inflammatory phenotypes in the microenvironment which could be responsible for the halt in the metastatic outgrowth of seeded cancer cells in the treated group.
Studies in mice were reviewed and approved by the Georgetown University Animal Care and Use Committee (GUACUC). Animals were randomized to receive vehicle control (DMSO) or VT107. Treatment was formulated in 5% DMSO, 10% solutol and 85% D5W; D5W. 5% glucose and administered daily by oral gavage. Five hundred thousand cells were injected into the mammary fat pad of age-matched 8 weeks old female NOD/SCID or C57/B16 mice purchased from Charles River or Jackson Laboratory, respectively. A hundred thousand 4T1 cells were injected into the tail veins of BALB/c mice purchased from Jackson Laboratory. Experimental timelines, treatment start times and durations are indicated in the figure diagrams and figure legends. Tissues collected were preserved in RNAlater (Thermofisher, #AM7020) or fixed in 10% formalin for histology analysis.
The total RNA from tissue or cell lines was extracted using RNeasy Mini Kit (Qiagen, #74104) according to the manufacturer's instructions. Total RNA integrity was assessed with the Agilent 2100 Bioanalyzer. The library preparation and next-generation sequencing (NGS) were performed at Novogene Corporation Inc. (Sacramento, CA, USA). At least triplicate samples per experimental condition were analyzed, raw sequence reads (150 bp paired end, […] average reads/sample) were aligned to the human or mouse transcriptome using STAR, and aligned reads translated to expression counts via featurecounts, followed by a standard edgeR (RRID:SCR_012802) pipeline to identify DEGs under specific conditions. Ingenuity pathway analysis (IPA, RRID:SCR_008653) was undertaken using a list of all differentially expressed genes with a cutoff of p-value less than 0.05 to identify signaling pathways and upstream regulators.

[1] = pathway analysis of lung RNA sequencing, VT107 vs vehicle

## VT107
30 mg/kg daily oral gavage for 4 weeks vs vehicle, H&E lung sections, listed as iTEAD
  development of lung metastases: did not develop lung metastases; also recorded: significantly reduced
30 mg/kg daily oral gavage for 4 weeks vs vehicle
  growth rate or final volume of the primary tumors: similar
30 mg/kg daily oral gavage for 4 weeks vs vehicle, listed as iTEAD
  growth rate or final volume of the primary tumors: no difference; also recorded: no effect
30 mg/kg daily
  outgrowth of cancer cells disseminated to the lungs: failed to grow into overt metastases
30 mg/kg daily, listed as iTEAD
  outgrowth of cancer cells disseminated to the lungs: halted outgrowth; also recorded: unable to outgrow
30 mg/kg daily, lungs monitored 4 weeks after tumor removal, all vehicle mice developed metastases
  mice with no overt lung metastases: 4 out of 5
RNA-Seq of lung tissue, iTEAD vs vehicle
  Toll-like receptor 4 (TLR4) signaling pathway in lung tissue (GSEA): drop and downregulation
VT107-treated mice
  human actin relative to mouse actin in lung tissues by qPCR: presence of DCIS cells
[1]
  myeloid cell activating pathways, acute phase response signaling and PD-L1 immunotherapy pathways in lungs: upregulation
  signaling pathways implicated in pulmonary and hepatic fibrosis, cardiac hypertrophy and liver injury in lungs: downregulated
